{
  "source": "patent US20100209934A1",
  "about": "“METHOD OF IDENTIFYING AGENTS WHICH MODULATE THE ACTIVITY OF CALCIUM-ACTIVATED CHLORIDE CHANNEL” (SNU R&DB FOUNDATION, priority 2007, published 2010)",
  "key": {"mouse ANO1": {"test_system": "mouse ANO1", "assay": "Whole-cell current recording in mouse ANO1 stable HEK cell line", "format": "cell-based", "conditions": "500 nM ionomycin, mANO1 stable HEK cell line", "description": "A stable cell line (HEK cells) that constitutively over-expresses mANO1 is constructed for high throughput screening analysis. In order to test whether the HEK cell line elicits ANO1 currents, ionomycin was applied. Application of ionomycin evoked a robust inward Cl^− currents in a whole cell. Pipette and bath solutions contained 140 mM NMDG-Cl.\nHEK293 cells were transfected with pEGFP-N-1-mANO1 using Lipofectamine (Invitrogen Corp., Carlsbad, Calif.). After selection in 800 μg/ml geneticin (Invitrogen Corp., Carlsbad, Calif.) for 15 days, single colonies were picked with cloning cylinders and tested for activity of ANO1.\nTo detect active compounds from chemical libraries or other sources of chemicals, a stable cell line, that constitutively expresses mouse ANO1, was constructed in accordance with the method of Reference Example 7. To construct a stable cell line, mouse ANO1 DNA was incorporated to the genomic DNA of human embryonic kidney (HEK) cells.\nThis confirms that ANO1 is constitutively expressed in the stable cell line."}, "mANO1": {"biological_target": "T1, mANO1 (Mus musculus, UniProt Q8BHY3, S527P)", "T1 sequence (Q8BHY3 1-960 S527P)": "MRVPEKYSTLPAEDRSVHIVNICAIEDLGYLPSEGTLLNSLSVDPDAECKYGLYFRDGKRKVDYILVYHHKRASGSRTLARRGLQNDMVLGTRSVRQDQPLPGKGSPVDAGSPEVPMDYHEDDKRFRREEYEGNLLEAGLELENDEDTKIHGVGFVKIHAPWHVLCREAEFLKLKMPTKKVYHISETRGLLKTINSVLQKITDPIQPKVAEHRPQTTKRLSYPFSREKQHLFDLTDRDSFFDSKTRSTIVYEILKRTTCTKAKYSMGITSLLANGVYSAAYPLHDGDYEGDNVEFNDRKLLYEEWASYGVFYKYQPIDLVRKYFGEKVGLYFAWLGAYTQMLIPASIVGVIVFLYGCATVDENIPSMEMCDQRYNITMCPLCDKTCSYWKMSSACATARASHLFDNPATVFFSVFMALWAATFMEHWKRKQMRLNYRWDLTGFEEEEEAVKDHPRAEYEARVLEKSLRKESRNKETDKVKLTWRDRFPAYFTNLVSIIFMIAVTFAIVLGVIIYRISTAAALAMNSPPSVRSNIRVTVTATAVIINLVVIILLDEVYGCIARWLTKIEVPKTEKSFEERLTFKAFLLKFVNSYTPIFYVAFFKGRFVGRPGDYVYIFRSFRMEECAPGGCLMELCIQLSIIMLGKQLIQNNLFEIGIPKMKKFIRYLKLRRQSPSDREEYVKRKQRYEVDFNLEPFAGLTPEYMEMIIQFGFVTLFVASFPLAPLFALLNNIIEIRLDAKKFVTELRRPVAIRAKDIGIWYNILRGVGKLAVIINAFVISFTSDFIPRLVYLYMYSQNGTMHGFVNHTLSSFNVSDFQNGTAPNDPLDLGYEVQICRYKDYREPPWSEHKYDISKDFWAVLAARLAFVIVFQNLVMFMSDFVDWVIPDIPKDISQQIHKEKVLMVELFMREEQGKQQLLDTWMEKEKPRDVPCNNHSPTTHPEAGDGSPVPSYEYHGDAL", "assay": "Two-electrode voltage clamp currents in Xenopus oocytes injected with mANO1 complementary RNA", "format": "cell-based", "parameters": "expressed in transfected cells; host or cells: Xenopus laevis oocytes (cRNA injection)", "conditions": "ionomycin 4 μM; mANO1 expressing oocytes", "description": "pSDTF-mANO1 obtained in Reference Example 1 was linearized using BamHI. Complementary RNA was transcribed with SP6 RNA polymerase (mMESSAGE mMACHINE® SP6 Kit, Ambion, Austin, Tex.). After being defolliculated with collagenase (Type IA, Sigma), Xenopus laevis oocytes were injected with 50 ng of the complementary RNAs of mANO1 in 50 nl of diethylpyrocarbonate-treated water. Two to five days after the injection, whole cell currents were recorded using the two-electrode voltage clamp technique. The bath solution contained 96 mM NaCl, 1 mM MgCl2, 5 mM HEPES, 2 mM KCl and 1.8 mM CaCl2 at pH 7.5 and was perfused at 2 ml/min. Experiments were performed at room temperature.\nXenopus oocytes provide a recognized model for endogenous CaCC studies because they express endogenous CaCCs that are required for ‘fertilization depolarization’ (Hartzell, H. C. et al., Mol Pharmacol 51, 683-92 (1997)). Furthermore, the biophysical and pharmacological properties of Xenopus CaCCs are similar to those of mammalian CaCCs (Machaca, K. et al., Calcium-Activated Chloride Channels (ed. Fuller, C. M.) (Academic Press, Amsterdam, 2002)). Accordingly, the present inventors expressed mANO1 in Xenopus oocytes and tested its activation by receptor stimulation using 1 μM LPA (lysophosphatidic acid). CaCCs in Xenopus are known to be activated by LPA (Guo, Z. et al., Proc Natl Acad Sci USA. 93, 14367-72 (1996); and Kim, M. J. et al., Biochem Pharmacol. 59, 241-7 (2000)). […] Moreover, LPA-induced ANO1 currents were outwardly-rectifying, like those of native CaCCs in Xenopus oocytes (Machaca, K. et al., supra) (FIG. 4C). The reversal potential was 37.7±1.05 mV (n=5), which is close to the equilibrium potential of Cl^− in Xenopus oocytes (Weber, W., Biochim Biophys Acta 1421, 213-33 (1999)).\nIndeed, LPA (1 μM) applied to oocytes expressing mANO1 induced a large inward current.\nFurther, pretreatment of 1 μM thapsigargin blocked the IP3-induced current in a mANO1-expressing oocyte (FIGS. 10C and 10D).\nLPA-induced ANO1 currents were blocked by Cl^− channel blockers. The Cl^− channel blockers were applied 10˜20 min before the LPA application. […] This blockade of agonist-induced ANO1 currents by DIDS, niflumic acid, or NPPB were also observed in mammalian cells transfected with mANO1."}},
  "data": [
    {"smiles": "C[C@H](CCC(=O)O)C[C@H](C)C[C@H](C)C(=O)/C=C(\\O)[C@H](C)C[C@H](C)C/C=C/[C@@H](C)[C@@H](O)[C@@H](C)[C@@H](O)C[C@@H]1CC[C@@](C)([C@H]2CC[C@@](C)([C@@H](C)O)O2)O1", "note": "[ionomycin]", "values": [
      {"measurement": "inward current evoked by ionomycin", "setting": "mouse ANO1", "result": "robust inward current"},
      {"measurement": "activation of mANO1 by Ca2+ ionophore", "setting": "mANO1", "result": "Activation"}
    ]}
  ]
}
